Experiments:
[1] = tested on: ERK phosphorylation in primary mouse astrocytes; test: ERK phosphorylation in primary mouse cortical astrocytes (AlphaLISA SureFire Ultra); format: cell-based; conditions: Astrocyte, 10 min, 10-minute exposure
Protocol: (§1) For the experiments using mouse and human primary astrocytes, ten-point concentration-response curves (90 nM-4.57 pM or 30 nM-1.52 pM) were generated for AKT and/or ERK phosphorylation in primary human and mouse cortical astrocytic cultures in response to a 10-minute treatment with ozanimod, Compound 3, Compound 1, or FTY720-P. AKT and ERK phosphorylation were quantified using AlphaLISA SureFire Ultra Assay kits and the EnVision Plate Reader. AKT and ERK phosphorylation within treated astrocytes were expressed as the mean change in signal intensity compared to the dimethyl sulfoxide (DMSO) vehicle and the half maximal effective concentration (EC50) was determined using non-linear regression.
Timed pregnant (E16) C57BL/6J female mice arrive to the test facility on a weekly basis and were housed and cared for according to appropriate protocols for this model. Primary mouse cortical astrocytes are harvested from P0-P2 pups. The newly born animals were deeply anesthetized on ice, decapitated, and the brains were rapidly removed and stored in ice-cold NbAstro media (BrainBits, LLC). Cells were dissociated from freshly dissected cortices by mechanical disruption in the presence of trypsin and DNase. Cells were put into a PDL coated T75 tissue culture flask containing 16 mL NbAstro Media and incubated at 37° C. 5% CO2. Once the mouse astrocytes had reached confluency in the T75 flask, they were detached using TripLE detachment reagent, pelleted at 300×g, expanded into two T225 PDL coated tissue culture flasks containing 40 mL of NbAstro and incubated at 37° C. 5% CO2. […]
Cell lysis and detection of pERK were performed according to the PerkinElmer AlphaLISA SureFire Ultra p-ERK1/2 (Thr202/TYR 204) assay protocol. […] The plates were read on the EnVision Plate Reader to assess the pERK levels.
(§2) The AKT and ERK phosphorylation data, collected by a Perkin Elmer EnVision Microplate Reader, was analyzed by non-linear regression (GraphPad Prism, version 7.03) to determine the EC50 values.

[2] = tested on: ERK phosphorylation in primary human astrocytes; test: ERK phosphorylation in primary human cortical astrocytes (AlphaLISA SureFire Ultra); format: cell-based; conditions: Astrocyte, 10 min, 10-minute exposure, n=3-5
Protocol: as §1
Primary human astrocytes were purchased from ScienCell Research Laboratories, Inc. and cultured according to the supplier's protocol. The astrocytes were obtained from the human cerebral cortex, cryopreserved at passage one, and delivered frozen. The frozen vials of cells were gently thawed in a 37° C. water bath. Once the contents of the vial were completely thawed, the cell solution was dispensed into a poly-L-lysine (PLL) coated T75 tissue culture flask with 16 mL of human Astrocyte Media, (ScienCell Research Laboratories, Inc.) and incubated at 37° C. 5% CO2. Once the human astrocytes had reached confluency in the T75 flask, they were detached using trypsin/EDTA 0.25%, pelleted at 300×g, split into two PLL coated T225 tissue culture flasks in 40 mL of astrocyte media, and incubated at 37° C. 5% CO2. Once the astrocytes reached confluency in the T225 flasks, they were detached using trypsin/EDTA 0.25% solution, pelleted at 300×g, plated into poly-D-lysine (PDL) coated 96-well plates at a density of 10,000 cells per well in 200 μL human Astrocyte Media, and incubated at 37° C. 5% CO2. Half of the media was replenished every 3-4 days. After 5-7 days of incubation, the P2 human astrocyte plates were utilized for the pERK and pAKT assays.
Cell lysis and detection of pERK were performed according to the PerkinElmer AlphaLISA SureFire Ultra p-ERK1/2 (Thr202/TYR 204) assay protocol. Astrocytes were lysed in the 96-well plate following a 10 minute incubation with compounds with shaking at RT. The astrocytic lysates (10 μL/well) were transferred into a 384-well OptiPlate. As specified by the assay protocol, an acceptor bead mix and a donor bead mix (5 μL/well for each) were added to the plate under subdued light. Plates were sealed with adhesive plate seals and incubated in the dark for 2 hours at RT. The plates were read on the EnVision Plate Reader to assess the pERK levels.
as §2

CC(C)Oc1ccc(-c2nc(-c3cccc4c3CCC4=O)no2)cc1C#N [Compound 1, 2-isopropoxy-5-(3-(1-oxo-2,3-dihydro-1H-inden-4-yl)-1,2,4-oxadiazol-5-yl)benzonitrile]
EC50 [1]: 0.87 nM
EC50 [2]: 2.12 nM

CC(C)Oc1ccc(-c2nc(-c3cccc4c3CC[C@@H]4NCCO)no2)cc1C#N [Ozanimod]
EC50 [1]: 2.42 nM
EC50 [2]: 1.93 nM

— patent US11207301B2, “Sphingosine 1 phosphate receptor agonists for neuroprotection” (RECEPTOS LLC, priority 2017, dated 2021)
